Measured values as given in patent US9532519B2, “Plant growth regulator and use thereof” (Japan Science and Technology Agency, priority 2006, dated 2017).

Legend:
[1] = system: strawberry (breed; Eminent garden series, Yokubari-ichigo kurenai (SUMIKA)); experiment: Effect of oxidized glutathione on growth of strawberry (number of runners); type: in vivo; details: 50 mL of 0.5 mM-GSSG two times a week; four months after the fertilization; Cont zone two or three runners
[2] = system: Sweet corn (Canberra 90, TAKII & CO., LTD.); experiment: Effect 1 of oxidized glutathione on productivity of corn; type: in vivo; details: 200 mL of 0.5 mM-GSSG two times a week for 12 weeks at root
Experimental: (§1) Sweet corn (Canberra 90, TAKII & CO., LTD.) was sown, and then transferred to a hydroponics pot ( 1/2000 are) filled with a culture soil (6 L of vermiculite as the lower layer, 3 L of The Kureha Ikubyou Baido soil as the middle layer, and 3 L of vermiculite as the upper layer) two weeks later and additionally fertilized with 3 g of KUMIAI RIN […] S604 four weeks later and six weeks later. Further, the GSSG-treated plant was given 200 mL of 0.5 mM-GSSG two times a week for 12 weeks after germination at its root.

[3] = system: transformants of Arabidopsis to which the gFBA gene was introduced and wild-type Arabidopsis (Columbia; Col); experiment: Influence 3 of oxidized glutathione on gFBA transformant Arabidopsis (GSSG only, 0 mM to 5 mM); type: in vivo; details: only GSSG as liquid fertilizer
Description: This tendency was more clearly observed in the transformants of Arabidopsis to which the gFBA gene was introduced.

Arabidopsis [4] = experiment: Influence 2 of treatment condition on seeds of Arabidopsis (start time of 1 mM-GSSG); type: in vivo; details: regardless of the time of treating
Experimental: Seeds of Arabidopsis were sown in pods filled with soil immersed in water. The pods were transferred to trays with water containing 1 mM-GSSG 2 days after, 1 week after, 2 weeks after, 3 weeks after, 4 weeks after, 5 weeks after, 6 weeks after, or 7 weeks after the sowing.
Arabidopsis was cultivated under the same conditions as those described in <1. Influence of oxidized glutathione on growth of Arabidopsis> except for the above condition.
The seed weight per one pod, obtained from Arabidopsis thus cultivated (three plants in each pod), was measured.

[5] = system: transformants of Arabidopsis to which a gene encoding gFBA was introduced and the wild-type Arabidopsis (Columbia; Col); details: in vivo
[6] = system: Soybean (breed: Tsurumusume) and soybean (breed; Toyomusume); experiment: Influence of oxidized glutathione on growth and yield of seeds of soybean, agricultural field; type: in vivo; details: 0.5 mM-GSSG, 50 mL per individual two times a week at base of stem; each breed
Experimental: The soybean was fertilized with a nitrogen fertilizer that was KUMIAI RIN […] S604 in a ratio of 20 kgN per 10 are, and was additionally fertilized with 5 kgN 3 weeks later.
Further, in a GSSG-treated management zone, a 0.5 mM-GSSG solution was given to the base of a stem (see the arrow in FIG. 21) in the amount of 50 mL per one individual two times a week in such a manner that the solution flowed along the stem.
In a case where it was likely to rain, the GSSG solution was supplied to the plant after the rain. Similarly, in a case of watering, the GSSG solution was supplied to the plant after the watering. When the harvest time of the plant of the control (i.e. normal nitrogen management zone) was coming, supply of the GSSG solution to the plant in the GSSG-treated management zone was stopped.
The seed weight, the amount of biomass, and the harvest index of the plant thus obtained in the GSSG-treated management zone, each relative to that of the plant in the normal nitrogen management zone, were measured.

Arabidopsis seeds = experiment: Germination rate (ripeness) of seeds from Arabidopsis cultivated with oxidized glutathione; type: in vivo
Description: Ripeness of seeds obtained from Arabidopsis cultivated with oxidized glutathione was examined.

Tsai-hsin = experiment: Influence of oxidized glutathione on growth of tsai-hsin, agricultural field; type: in vivo; details: 0.5 mM- or 5 mM-GSSG sprayed to leaves two times a week, 1 L per zone (3 m^2)
Description: Tsai-hsin was cultivated for two weeks, and then transferred to an agricultural field and grown with or without the treatment with GSSG. Tsai-hsin was fertilized with a nitrogen fertilizer that was KUMIAI RIN […] S604 in a ratio of 20 kgN per 10 are, and was additionally fertilized with 5 kgN 3 weeks later.

[7] = system: Sweet corn (Canberra 90, TAKII & CO., LTD.); experiment: Effect 2 of oxidized glutathione on productivity of corn (time of treatment); type: in vivo
Experimental: as §1, with “later.” for “later. Further, the GSSG-treated plant was given 200 mL of 0.5 mM-GSSG two times a week for 12 weeks after germination at its root.”
Further, the GSSG-treated plant was given 50 mL of 0.2 mM-GSSG solution four times in 2 weeks (two times a week) after 2 weeks, 4 weeks, or 6 weeks had elapsed from the sowing. Further, there were prepared a management zone to which 0.2 mM-GSSG was given 22 times in total for 11 weeks after 2 weeks had elapsed from the sowing and a management zone to which 0.2 mM-GSSG was not given.
The amount of fruits and the amount of biomass of ground parts of each plant were measured and harvest index was calculated.

[8] = system: Rose (breed; Patiohit alicante); experiment: Influence of oxidized glutathione on growth of rose (Patiohit alicante); type: in vivo; details: 50 mL of 0.5 mM-GSSG two times a week for four months, then pruned
Experimental: Rose (breed; Patiohit alicante) was fertilized with 50 mL of 0.5 mM-GSSG solution two times a week for four months and then pruned completely and cultivated.

Arabidopsis [9] = experiment: Effect of concentration of oxidized glutathione on growth of Arabidopsis; type: in vivo
Experimental: Specifically, soil filled in a pod of approximately 65 in width, 65 in depth, and 50 in height was immersed in 0 mM-, 0.01 mM-, 0.2 mM-, 1 mM-, 2 mM-, and 5 mM-GSSG solutions. Seeds of Arabidopsis were sown in such a manner that approximately three seeds existed in each pod, and the seeds were observed chronologically 3 weeks after the sowing.

[10] = 0.2 mM-GSSG, eleven weeks after two weeks had elapsed from the sowing
[11] = soil immersed in 0-5 mM GSSG solutions

oxidized glutathione [GSSG]
number of runners per one stock [1]: several ten runners per one stock
amount of biomass of the portions other than the fruits vs not treated [2]: no great difference
amounts of biomass of the fruits and ground parts [2]: significantly high
formation of floral buds vs not treated [2]: promotion of formation of floral buds
harvest index vs not treated [2]: significantly high harvest index
number of edible seeds vs not treated [2]: more number of edible seeds
size of fruits vs not treated [2]: larger
size of seeds vs not treated [2]: larger
effects of increasing seed weight and harvest index compared with ammonium nitrate [3]: greatly larger than the maximum effects yielded by fertilization with nitrogen resulting from ammonium nitrate
concentration of GSSG at which the effect on harvest index was saturated ([3]; 0 mM to 5 mM): approximately 2 mM
seed weight as function of GSSG concentration ([3]; 0 mM to 5 mM): increased as concentration of GSSG increased, and the effect was not saturated at the tested concentration
seed weight per one pod vs no treatment (Arabidopsis [4]): more seed weight
harvest index, whole amount of biomass and seed weight [5]: increased any of the harvest index, the whole amount of biomass, and the seed weight
amount of biomass vs normal nitrogen management zone [6]: higher
harvest index vs normal nitrogen management zone [6]: higher
seed weight vs normal nitrogen management zone [6]: higher
germination rate (Arabidopsis seeds; 2 days after the sowing): significantly high
germination rate, difference from seeds of plants cultivated normally (Arabidopsis seeds; 7 days after the sowing): almost no difference
germination speed of seeds of treated plants vs plants cultivated normally (Arabidopsis seeds; seeds sown in 1/2 MS culture media): germinated faster
amount of growth vs normal nitrogen management zone (Tsai-hsin): significant increase in the amount of growth
amount of fruits and amount of biomass of ground parts per plant vs not treated [7, 10]: a larger amount of fruits and a larger amount of biomass of ground parts
harvest index vs not treated [7, 10]: great increase in harvest index
amount of fruits and amount of biomass of ground parts per plant vs not treated ([7]; 0.2 mM-GSSG, two weeks after four weeks had elapsed from the sowing): a larger amount of fruits and a larger amount of biomass of ground parts
amount of fruits and amount of biomass of ground parts per plant vs not treated ([7]; 0.2 mM-GSSG, two weeks after six weeks had elapsed from the sowing): a smaller amount of fruits and a smaller amount of biomass of ground parts
harvest index vs not treated ([7]; 50 mL of 0.2 mM-GSSG, two weeks after four weeks had elapsed from the sowing): great increase in harvest index
harvest index vs not treated ([7]; 50 mL of 0.2 mM-GSSG, two weeks after six weeks had elapsed from the sowing): larger harvest index
growth of new floral buds vs not treated [8]: significant promotion of growth of new floral buds
difference from Arabidopsis cultivated with water (0 mM) (Arabidopsis [9]; 0.01 mM GSSG): almost no difference
concentration at which making a leaf rounder and lengthening the life of a plant were clearly observed (Arabidopsis [9]; [11]): 0.2 to 2 mM
concentration at which making a stem thicker was observed (Arabidopsis [9]; [11]): 1 to 2 mM
